Results taken from patent publication US20120027687A1, “FATTY ACID PROTEIN KINASE C ACTIVATORS AND ANTICOAGULANT FOR THE TREATMENT OF STROKE” (priority 2010, published 2012).

Experiments:
PKCε [1] = target: T1, PKCε (Homo sapiens, UniProt Q02156); assay: PKC assay with purified PKCε; format: biochemical
T1 construct: purchased Calbiochem
T1 sequence (Q02156 1-737): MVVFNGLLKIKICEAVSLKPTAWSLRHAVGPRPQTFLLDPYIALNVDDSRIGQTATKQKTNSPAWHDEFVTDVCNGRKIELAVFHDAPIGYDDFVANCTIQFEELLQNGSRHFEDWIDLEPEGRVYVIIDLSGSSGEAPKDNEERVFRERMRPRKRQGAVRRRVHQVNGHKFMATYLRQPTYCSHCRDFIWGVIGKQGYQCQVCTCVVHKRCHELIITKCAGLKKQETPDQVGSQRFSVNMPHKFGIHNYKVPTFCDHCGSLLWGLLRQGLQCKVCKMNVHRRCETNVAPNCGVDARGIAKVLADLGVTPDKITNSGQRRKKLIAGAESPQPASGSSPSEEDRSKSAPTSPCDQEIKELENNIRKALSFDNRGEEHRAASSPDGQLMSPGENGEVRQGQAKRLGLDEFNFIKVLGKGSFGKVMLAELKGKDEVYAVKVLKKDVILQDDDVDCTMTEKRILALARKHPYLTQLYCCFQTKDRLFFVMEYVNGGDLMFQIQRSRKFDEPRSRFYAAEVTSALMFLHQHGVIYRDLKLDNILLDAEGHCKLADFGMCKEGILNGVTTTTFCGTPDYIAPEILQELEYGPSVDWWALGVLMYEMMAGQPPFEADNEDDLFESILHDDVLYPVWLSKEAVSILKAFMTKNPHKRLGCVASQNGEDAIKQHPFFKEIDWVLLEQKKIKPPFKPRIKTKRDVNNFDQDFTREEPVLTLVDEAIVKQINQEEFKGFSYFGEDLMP
Protocol: PKC assay. […] 0.5 micro Ci[^γ32P]ATP was added. […] The reaction was stopped by spotting the reaction mixtures on 1×2 cm strips of cellulose phosphate paper (Whatman P81) and immediately washing twice for 1 hr in 0.5% H3PO4. The cellulose phosphate strips were counted in a scintillation counter. In some experiments, phosphatidylserine, diacylglycerol, and/or calcium were removed. […]
(§1) To determine their PKC isozyme specificity, fatty acid derivatives were preincubated with purified PKC for five minutes and the PKC activity was measured radiometrically.

PKCδ = target: T2, PKCδ (Homo sapiens, UniProt Q05655); assay: PKC assay with purified PKCδ; format: biochemical; settings: about 1-100 μM, data not shown
T2 construct: purchased Calbiochem
Protocol: (§2) Protein kinase C assay. Rat hippocampal cells were cultured and scraped in 0.2 ml homogenization buffer (20 mM Tris-HCl, pH 7.4, 50 mM NaF, 1 μg/ml leupeptin, and 0.1 mM PMSF) and homogenized by sonication a Marsonix microprobe sonicator (5 sec, 10W). To measure PKC, 10 μl of cell homogenate or purified PKC isozyme (purchased from Calbiochem) was incubated for 15 min at 37° C. in the presence of 10 μM histones, 4.89 mM CaCl2, 1.2 μg/μl phosphatidyl-L-serine, 0.18 μg/μl 1,2-dioctanoyl-sn-glycerol, 10 mM MgCl2, 20 mM HEPES (pH 7.4), 0.8 mM EDTA, 4 mM EGTA, 4% glycerol, 8 μg/ml aprotinin, 8 μg/ml leupeptin, and 2 mM benzamidine. 0.5 Ci [^γ32P]ATP was added and ^32P-phosphoprotein formation was measured by adsorption onto phosphocellulose as described previously. Nelson and Alkon, J. Neurochemistry (1995), vol. 65, pp. 2350-2357. For measurements of activation by BR-101 (DCP-LA) and similar compounds. PKC activity was measured in the absence of diacylglycerol and phosphatidylserine and PKC δ, ε, η, and μ were measured in the absence of added EGTA and CaCl2, as described by Kanno et al. (J. Lipid Res. 2006, vol. 47, pp. 1146-1150). […]
as §1

other PKC isoforms = assay: PKC isozyme specificity, other isoforms; format: biochemical; settings: at 10 μM, data not shown
Protocol: as §2, §1

PKC = PKC activation over time in hippocampal primary neurons; format: cell-based, rat
Protocol: Cell culture. Rat hippocampal H19-7/IGF-IR cells (ATCC, Manassas, Va.) were plated onto poly-L-lysine coated plates and grown at 35° C. in DMEM/10% FCS for several days until about 50% coverage was obtained. The cells were then induced to differentiate into a neuronal phenotype by replacing the medium with 5 ml N2 medium containing 10 ng/ml basic fibroblast growth factor at 39° C. and grown in T-75 flasks at 37° C. Human SH-SY5Y neuroblastoma cells (ATCC) were cultured in 45% F12K/45% MEM/10% FCS. Mouse N2A neuroblastoma cells were cultured in DMEM/10% FCS without glutamine. Rat hippocampal neurons from 18-day-old embryonic Sprague Dawley rat brains were plated on 12- or 96-well plates coated with poly-D-lysine (Sigma-Aldrich, St. Louis, Mo.) in B-27 neurobasal medium containing 0.5 mM glutamine and 25 μM glutamate (Invitrogen, Carlsbad, Calif.) and cultured for three days in the medium without glutamate. The neuronal cells were grown under 5% CO2 in an incubator maintained at 37° C. for 14 days.
Protein kinase C assay. […] 0.5 Ci [^γ32P]ATP was added and ^32P-phosphoprotein formation was measured by adsorption onto phosphocellulose as described previously. […] PKC activity was measured in the absence of diacylglycerol and phosphatidylserine and PKC δ, ε, η, and μ were measured in the absence of added EGTA and CaCl2, as described by Kanno et al. (J. Lipid Res. 2006, vol. 47, pp. 1146-1150). […]

TACE = TACE activity in neuronal cells; format: cell-based, human, mouse; settings: SH-SY5Y cells, N2a cells, primary neurons from rat hippocampus
Protocol: TACE Assay. TACE was measured by incubating 5 μl cell homogenate, 3 μl buffer (50 mM Tris-HCl 7.4 plus 25 mM NaCl plus 4% glycerol), and 1 μl of 100 μM TACE substrate (Aβz-[…]-DPa) (Calbiochem) for 20 min at 37° C. 1.5-ml polypropylene centrifuge tubes. Jin et al., Anal. Biochem. (2002), vol. 302, pp. 269-275. The reaction was stopped by cooling to 4° C. The samples were diluted to 1 ml and the fluorescence was rapidly measured (ex=320 nm, em=420 nm) in a Spex Fluorolog 2 spectrofluorometer.

PKCε [2] = target: T1, PKCε; settings: cited from earlier work

T2 sequence (Q05655 whole entry): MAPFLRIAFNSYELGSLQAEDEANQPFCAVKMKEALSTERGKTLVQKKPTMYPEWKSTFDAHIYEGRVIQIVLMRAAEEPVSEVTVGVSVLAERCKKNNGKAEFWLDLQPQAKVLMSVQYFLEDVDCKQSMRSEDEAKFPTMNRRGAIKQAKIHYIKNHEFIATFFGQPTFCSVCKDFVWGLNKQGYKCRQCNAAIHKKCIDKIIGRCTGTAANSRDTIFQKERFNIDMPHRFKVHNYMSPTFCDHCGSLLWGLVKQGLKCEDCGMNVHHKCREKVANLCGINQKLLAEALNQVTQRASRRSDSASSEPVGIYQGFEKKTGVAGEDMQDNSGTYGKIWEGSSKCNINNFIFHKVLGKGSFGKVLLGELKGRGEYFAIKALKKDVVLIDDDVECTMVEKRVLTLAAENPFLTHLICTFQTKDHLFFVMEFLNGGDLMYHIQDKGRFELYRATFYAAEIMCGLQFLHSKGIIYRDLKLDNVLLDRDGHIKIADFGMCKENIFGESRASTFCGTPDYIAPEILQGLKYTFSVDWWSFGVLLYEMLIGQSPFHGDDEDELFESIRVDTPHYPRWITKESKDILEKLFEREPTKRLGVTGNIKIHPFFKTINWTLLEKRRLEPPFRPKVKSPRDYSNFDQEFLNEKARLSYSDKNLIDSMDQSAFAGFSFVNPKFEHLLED

Structure (SMILES): CCCCCC1CC1CC1CC1CCCCCCCC(=O)O (stereo not shown) [BR-101, 2-[(2-pentylcyclopropyl)methyl]cyclopropaneoctanoic acid]
- activation of PKCε (PKCε [1]; 10 nM, lowest concentration tested): 2.75 fold
- activation of PKCε (PKCε [1]; at 10 μM): effective activator
- effect on PKCδ at higher concentrations (PKCδ): partially inhibited
- effects on the other PKC isoforms (other PKC isoforms): relatively small effects
- duration of elevated PKC (PKC): remained elevated for at least four hours
- TACE activity (TACE): small increases
- concentration of maximal effect on PKCε (PKCε [2]): 100 nM
